The source of these data is article PMC5517430, “2,3,7,8-Tetrachlorodibenzo-p-dioxin (TCDD)-elicited effects on bile acid homeostasis: Alterations in biosynthesis, enterohepatic circulation, and microbial metabolism” (Scientific Reports, 2017).

Series [1] concerns bsh and baiCD of gut microbiota. Briefly: Degenerate qRT-PCR of bacterial functional genes in fecal pellets. The format is in vivo, mouse. Conditions: male mice, 30 µg/kg TCDD. From the text: The bsh Hidden Markov Model (HMM) constructed by the Ribosomal Database Project consisted of 12 vetted seed sequences from Lactobacillus, Clostridium, Roseburia, Eubacterium, Butyrivibrio, and Streptococcus species, while the baiCD HMM consisted of 10 vetted seed sequences from Clostridium and Lachnospiraceae species. Using these models, more inclusive sequence sets were created for bsh and baiCD within the ‘FunGene functional gene pipeline & repository’[80] by extracting sequences from GenBank. Setting the HMM consensus percent identity cut-off to ≥40%, nucleotide sequences of bsh and baiCD were obtained from 2633 and 129 bacterial organisms, respectively. Given the diversity of bacterial organisms found to express bsh, the 2633 sequences from FunGene were separated into 4 groups based on nucleotide similarity determined through construction of a phylogenetic tree (Group 1: 423, Group 2: 330, Group 3: 955, Group 4: 925). Bacterial classifications (genus level) of the bsh sequences in each phylogenetic group are depicted in Fig. 8A1. […] The Primer Design terminal program developed by the Ribosomal Database Project (https://github.com/rdpstaff/PrimerDesign) was used to design degenerate primer sets which target conserved regions within baiCD and each phylogenetic group of bsh (Supplementary Table S2). To estimate the overall abundance of bile acid metabolism genes within the gut microbiome, primer sets were selected to target ≥75% of the baiCD sequences and the sequences within each bsh group.
Frozen fecal pellets were crushed into a powder and bacterial DNA was isolated using the QIAamp DNA Stool Mini Kit (Qiagen, Valencia, CA). To investigate bile acid metabolism loci, qRT-PCR was performed on a Bio-Rad CFX Connect Real-Time PCR Detection System as previously described. Gene expression relative to vehicle control was calculated using the 2^−∆∆CT method, with each fecal sample extract normalized to total bacterial DNA levels using universal primers targeting the 16 S ribosomal RNA gene[81]. Gene levels are plotted relative to vehicle control.
Background: Quantitative PCR measures a nucleic acid by following its amplification.

In a further series the test system is liver of C57BL/6 mice. Briefly: QuHAnT quantitation of Oil Red O staining (hepatic fat accumulation). The settings on record: 30 µg/kg TCDD every 4 d for 28 d. In kind it is in vivo, mouse. How it is done:
All processing was performed by the MSU Investigative Histopathology Laboratory (https://humanpathology.natsci.msu.edu/). Formalin-fixed hepatic tissues were vacuum infiltrated with paraffin using a Tissue-Tek VIP 2000 tissue processor (Sakura) and embedded with the Thermo Fisher HistoCentre III Embedding Center (Thermo Fisher, Waltham, Massachusetts). Paraffin blocks were sectioned at 4–5 µm with a Reichert Jung 2030 rotary microtome (Reichert, Depew, New York) and dried for 2–24 h at 56 °C to ensure adherence to the slides. For lipid staining, liver sections frozen in O.C.T. compound were sectioned at 6 µm, fixed in 10% NBF for 5 min, rinsed with water, and immersed in 100% propylene glycol for 5 min. Liver sections were stained with hematoxylin and eosin (H&E) for general histological assessment. Lipids were stained using Oil Red O (ORO) as previously described. […]
Quantitation of ORO staining was performed using the Quantitative Histological Analysis Tool (QuHAnT)[66]. […] Using ImageJ (http://rsb.info.nih.gov.ij/), optimal hue, saturation, and value (HSV) image segmentation thresholds for feature extraction were determined to be 0 to 50 and 225 to 255 (hue), 125 to 255 (saturation), and 0 to 255 (value), while optimal total tissue feature extraction thresholds were 0 to 255 (hue), 20 to 255 (saturation), and 0 to 255 (value). […]

Another series deals with male C57BL/6 mice. The series can be described thus: Whole gut transit time with carmine red dye. The format is in vivo, mouse. How it is done:
At 27d after the initial dose (PND55), whole gut transit time (WGTT) was determined using carmine red dye, which cannot be intestinally absorbed. At time 0 (t0), mice were orally gavaged with 150 µL of carmine red solution (6% carmine red dye suspended in 0.5% methylcellulose). Fecal pellets were monitored continuously for the presence of carmine red. WGTT represents the time interval between t0 and the first observance of carmine red dye in the fecal pellets.

The test system of series [2] is gallbladder of male C57BL/6 mice. Briefly: Gallbladder volume (micro-caliper, ellipsoid). The format is in vivo, mouse. The settings on record: 30 µg/kg TCDD every 4 d for 28 d. How it is done:
At 25d after the initial dose (PND53), fecal pellets from the previous 24 hours (h) were collected from each cage (4 mice per cage) and stored at −80 °C. At 28d after the initial exposure (PND56), mice (fasted for 6 h) were weighed and blood was collected from the submandibular vein prior to cervical dislocation. The gallbladder length, width, and depth were measured using a micro-caliper. Its volume was calculated assuming an ellipsoid shape: volume (µL) = length (mm) × width (mm) × depth (mm) × π/6[63], [64]. The distal ileum (10 cm section extending from the caecum toward the jejunum) was removed, flushed with Ca^2+/Mg^2+-free phosphate buffered saline (PBS; Sigma), and opened longitudinally. The epithelial lining was scraped into a vial containing TRIzol (Invitrogen, Carlsbad, CA), frozen in liquid nitrogen, and stored at −80 °C. Liver, gonadal white adipose tissue (gWAT), and brown adipose tissue were removed, weighed, frozen in liquid nitrogen, and stored at −80 °C. Serum alkaline phosphatase (ALP) activity was determined using a commercial kit (Pointe Scientific, Canton, MI).

In the next series the test system is Gpbar1. The series can be described thus: Hepatic qRT-PCR. The settings on record: Mus musculus; male mice, 30 µg/kg TCDD every 4 d for 28 d; read-out: Gpbar1 hepatic expression (qRT-PCR), fold induction. The format is in vivo. How it is done: Given the low (≤10) read counts for Gpbar1 in the RNA-Seq dataset, differential expression was confirmed by qRT-PCR[13]. Total hepatic RNA was reverse transcribed by SuperScript II (Invitrogen) using oligo dT primer according to the manufacturer’s protocol. PCR amplification was conducted on a Bio-Rad CFX Connect Real-Time PCR Detection System. Gene expression relative to vehicle control was calculated using the 2^−∆∆CT method, where each sample was normalized to the geometric mean of 3 housekeeping genes (Actb, Gapdh, and Hprt). Gene expression data are plotted relative to vehicle control. Forward and reverse primer sequences are provided in Supplementary Table S2.

[3] abbreviates: normalized to 16S rRNA gene, n = 2.

`Clc1cc2c(cc1Cl)Oc1cc(Cl)c(Cl)cc1O2` [TCDD, 2,3,7,8-tetrachlorodibenzo-p-dioxin]: in series [1], the “bsh gene levels within phylogenetic group 4” value is recorded as “unaffected”; the “bsh gene levels within phylogenetic groups 1, 2, and 3” value is reported as “increased”. Also, in series [1] (setting [3]), the “Clostridium baiCD level (validated primers), fold increase” value came out at 2.1 fold; the “bsh gene level, group 1 primer set 7, fold increase” value was 21.8 fold; the “bsh gene level, group 1 primer set 8, fold increase” value was determined as 7.3 fold; the “bsh gene level, group 2 primer set 2, fold increase” value is 7.6 fold. In addition, in series [1] (setting [3]), the “bsh gene level, group 2 primer set 11, fold increase” value came out at 7.5 fold and the “bsh gene level, group 3 primer set 9, fold increase” value is recorded as 4.2 fold. Moreover, in the series on liver of C57BL/6 mice, the “Hepatic fat accumulation (ORO), males compared to females” value was 6.2 fold. Further, in the series on male C57BL/6 mice (30 µg/kg TCDD every 4 d, 27 d after initial dose, controls 2.5 h), the “Whole gut transit time” value was determined as 4.1 h. Also, the “Reduction in gut motility” value in the series with male C57BL/6 mice (30 µg/kg TCDD vs controls) worked out at 1.6 fold. Also, the “Gallbladder volume, fold increase compared to controls” value in series [2] was determined as 2.5 fold. Further, the fold induction at 0.03 mg/kg with Gpbar1 was determined as 4.3.
